In US12622933B2, “Method for improving eye condition” (LAIMU CORPORATION, priority 2022, dated 2026):

System: dry eye patient
Experiment: Peroral administration to a dry eye patient
Format: in vivo, human
Settings: perorally administered to a dry eye patient; no method or data given

For hyaluronic acid, the “eye condition improving effect” value was “any significant eye condition improving can not be attained”.
